pIC50: −log10 of the molar value.
Experiments:
caspase-9 = assay: Caspase assay activity, caspase-9, Panc-1 cells; format: cell-based; conditions: fluorimetric assay, increasing concentrations
Protocol: Caspase assay activity: Caspase-3, caspase-8 and caspase-9 protease activities were determined using a commercial fluorescence assay kit according to the manufacturer's instructions, Briefly, pancreatic cancer cells were treated with different concentrations of IM-1372-Kn-13 for 24 h were re-suspended in 50 μL of chilled cell lysis buffer; cells were then incubated on ice for 10 min and centrifuged for 1 min in a micro-centrifuge (10,000 g). Then supernatants were transferred (cytosolic extract) to a fresh tube and protein concentration was assayed. Next, diluted 100 μg protein was added to 50 μL cell lysis buffer for each assay. Subsequently, 50 μL of 2× reaction buffer and 5 μL of the 4 mM Ac-DEVD AMC (caspase-3)/Ac-VETD-AMC (caspase-8)/[…] were added and incubated at 37° C. for 2 h (samples read at […] in a microtiter plate reader).

p21 = assay: Western blotting analysis on Panc-1 cell line, p21; format: cell-based; conditions: panc-1 cells, various concentrations, 24 h, Western blot
Protocol: (§1) Western blotting analysis of IM-1372-Kn-13 on Panc-1 cell line: The cells were lysed in RIPA buffer (50 mM-tris (PH-7.4), 150 Min-Nacl, 1%-NP-40, 0.1%-SDS, 0.5%-Sodium-deoxycholate, 1 mM EDTA, 5 mM NaF, 5 mM Na—O-vandate, 1 mM PMSF, Protease inhibitor cocktail. The lysates were cleared by centrifugation at […] and concentration of protein was estimated by bradford assay. For Western blot analysis, equivalent amount of protein was resolved in SDS-PAGE and then transferred to polyvinylidene difluoride ([…]) membrane. Ti avoid non specific binding of antibodies, the membranes were blocked using 3% BSA in TBS with 0.5% Tween (TBST) for 1 h at room temperature. The membranes were then incubated in primary antibody overnight at 4° C. After removing excess primary antibody bound to membranes, blots were incubated with secondary anti body. Then the signal emitted was captured using chemiluminescence substrate.

[1] = system: Pan-02 cells xenograft tumors; assay: Pancreatic cancer xenograft model, anti-tumor activity; format: in vivo, nude mice; conditions: for Tumor Volume: 5 doses in 12 days, Pan-02 xenograft, mean ± SE
Protocol: In vivo studies: Materials and methods: Animals and cell lines: Healthy 8-10 week old nude mice of either sex, weighing between 20 g and 25 g were used as experimental animals for tumor induction. All animals were maintained under standardized animal house conditions (12 h light and 12 h dark condition) at controlled temperature (22±1° C.) and relative humidity (60-70%) in institutional registered animal house that was approved by Committee for the Purpose of Control and Supervision of Experiments on Animals (CPCSEA). They were maintained with standard pellet diet and water ad libitum. The institutional animal ethics committee approved the experimental protocol. CPCSEA guidelines were adhered to during the maintenance of animals and experiments. Pancreatic cancer cell line (Pan-02) was obtained from American Type Culture Collection and was cultured in RPMI medium.
Establishment of Pancreatic cancer xenograft model: To establish tumor in mice, Pan-02 cells (7×10^6) were suspended in 1:1 RPMI medium mixed with matrigel and subcutaneously implanted on right flank of the each mice. The injection sites were examined daily for the appearance of tumors. On 10th day these animals were randomized and divided into 3 groups (6 mice in each group). Group I served as control group received 20% ethanol three times in a week. Test group animals in Group II and III received intratumoral injection of IM-1372-Kn-13 at 10 mg and 25 mg/kg body weight respectively three times in a week. All groups received 5 repeated doses in 12 days. Mice were weighed and tumor volumes were measured 3 times a week by Vernier caliper. Tumor volume in individual mice was calculated by the following formula. 0.5×L (W)^2, Where L is length, W is width of the tumor. The control group animals were euthanized when tumor volume is reached heavier to animal. One-week after completion of treatment period, the animals were sacrificed, and tumors were excised, fixed, and embedded in paraffin. At the end of treatment, blood samples were collected to perform clinical biochemistry.

[2] = system: Pan-02 pancreatic cancer cell line; assay: In vitro anticancer activity, SRB assay, Pan-02; format: cell-based; conditions: Pan02, 48 h
Protocol: (§2) Cell culture: Human lung adenocarcinoma cell line (A549 cell line), pancreatic cancer cell line (Panc-1, Pan-02), prostate cancer cell line (DU145, PC3), Brest cancer cell line (MCF-7) was grown in DIEM (Dulbecco's modifications of eagle's medium with L-glutamine & 4.5 g/L glucose) supplemented with fetal bovine serum in a humidified atmosphere of a 5% CO2 at 37° C.
(§3) In vitro anticancer activity: Cells were harvested from exponential phase cultures by trypsinization, counted and plated in 96-well plate. Optimal seeding densities for different cell lines in each plate were 5000 cells per well. After 24 h cells were treated with \ the newly synthesized compound at a dose range of 0.1-100 μm final concentration. Thereafter, cells were allowed to grow for 48 h before determination of cell survival by the SRB assay. Then the cells were fixed with 10% cold trichloroacetic acid for 1 h at 4° C. After two washes with deionized water, fixed cells were stained with 50 μL of SRB solution (1% in acetic acid) for 30 min and subsequently washed twice with 1% acetic acid to remove unbound stain. The plates were left to dry at room temperature and bound stain was solubilized with 100 μL of 10 mM buffered Tris base for reading the […] at 540 nm.

[3] = system: A549 lung adenocarcinoma cell line; assay: In vitro anticancer activity, SRB assay, A549; format: cell-based; conditions: Homo sapiens, 48 h, NA = Not Active
Protocol: as §2, §3

p53 = assay: Western blotting analysis on Panc-1 cell line, p53; format: cell-based; conditions: panc-1 cells, various concentrations, 24 h, Western blot
Protocol: as §1

NIH3T3 cells = assay: In vitro anticancer activity, SRB assay, NIH3T3; format: cell-based
Protocol: as §3

[4] = system: PC3 prostate cancer cell line; assay: In vitro anticancer activity, SRB assay, PC3; format: cell-based; conditions: 48 h, NA = Not Active
Protocol: as §2, §3

## COC(=O)C[C@H]1[C@]2(C)C3=C(C)[C@H](C4=CC5OC4C(C(=O)OC)=C5C(=O)OC)C[C@@H]3O[C@@H]2[C@@H]2OC(=O)[C@]3(C)C=CC(=O)[C@@]1(C)C23 (some centres unmarked) [A4]
caspase-9
  activity of caspase-9: increased significantly in a dose-dependent manner
p21
  expression of p21 protein: reduced
[1]; 10 mg/kg intratumoral, nude mice
  Tumor Volume: 181.306 ± 12.7 mm^3
[1]; 10 mg/kg, 25 mg/kg body weight, intratumoral, nude mice
  body weight and food intake: did not cause any loss in body weight and food intake
[1]; 25 mg/kg intratumoral, nude mice
  Tumor Volume: 109.46 ± 7.1 mm^3
[1]; 10 and 25 mg/kg intratumoral, p<0.0001
  average volume of tumors compared to vehicle-treated animals: significantly decreased
[2]
  pIC50: 6.28
[3]
  pIC50: 5.34
p53
  expression of p53 protein: reduced
NIH3T3 cells
  cytotoxic activity: no activity was observed
[4]
  pIC50: 5.85

From patent publication US11932654B2, “Nimbolide analogs as anti-cancer agents and preparation thereof” (priority 2018, dated 2024)
